Laboratory results from patent US12569534B2, “Therapeutic nanoparticles by coacervate complexation and their use for treating bacteria” (priority 2018, dated 2026).

What was measured:
E. Coli ATCC 25922 = test: MIC and MBC of different treatments, Example 3; assay type: cell-based
Description: (§1) Reference bacterial stains were purchased from ATCC. Clinical isolates of carbapenem-resistant bacteria were obtained from National Health Research Institutes (NHRI) and Tri-Service General Hospital (TSGH). MIC is defined as the lowest concentration of antibiotics required to inhibit the growth of bacteria. MBC is defined as the lowest concentration of antibiotics required to eradicate microorganisms. The MICs of CS and the CS NPs were determined using a broth microdilution method. Bacterial suspensions were adjusted to a turbidity of McFarland 0.5±0.05 and cultured overnight with different concentrations of CS or CS NPs. A control group without antimicrobial treatment was prepared as a reference. Following overnight incubation, solution turbidity was determined by visual inspection. Culture wells with no observable turbidity were further sub-cultured for MBC evaluation. Solutions from the clear wells were deposited onto an agar plate and cultured overnight to determine the MBCs.

P. aeruginosa = test: MIC/MBC broth microdilution, Example 2; assay type: cell-based, Pseudomonas aeruginosa; conditions: Example 2 CS NPs
Description: as §1
To evaluate the antibacterial efficacy of the CS NPs of this study, their MIC and MBC were assessed against 5 reference bacterial strains and 20 clinical isolates of carbapenem-resistant A. baumannii, E. coli, K. pneumoniae, and P. aeruginosa according to the procedures set forth in EXAMPLE 1. Reference bacterial stains were purchased from ATCC. Carbapenem-resistant clinical isolated were obtained from NHRI.

E. coli = test: MIC/MBC broth microdilution, Example 1; assay type: cell-based; conditions: Example 1 CS NPs
Description: (§2) To evaluate antibacterial efficacy of the CS NPs, their minimum inhibitory concentration (MIC) and minimum bactericidal concentration (MBC) were assessed against 5 reference bacterial strains and 39 clinical isolates of carbapenem-resistant A. baumannii, P. aeruginosa, E. coli, and K. pneumoniae.
as §1

A. baumannii = test: MIC/MBC broth microdilution, Example 1; assay type: cell-based, Acinetobacter baumannii; conditions: Example 1 CS NPs
Description: as §2, §1

CS release by dialysis = assay type: physicochemical; conditions: 50 k MWCO membrane, 37° C., pH 7.4 and pH 5.0
Description: CS release from the CS NPs was studied using a dialysis tube with 50 k MWCO membrane (Pur-A-Lyzer™ Maxi Dialysis Kit, Sigma-Aldrich) in 0.15 M phosphate buffer (pH 7.4) and in 0.15 M acetate buffer solution (pH 5.0). […] Samples were each placed into a dialysis tube at 37° C. under gentle stirring. At predetermined time points, the samples were collected and analyzed for CS content using HPLC.

A. baumannii 17978 = test: Murine model of A. baumannii pneumonia, survival; assay type: in vivo; conditions: C57BL/6 mice, 5 mg/kg i.v. twice a day
Description: Briefly, A. baumannii 17978 were grown in 30 mL LB broth under shaking at 37° C. to reach the mid-logarithmic phase. The bacteria were then pelleted by centrifugation at 4,000 g for 15 minutes. The bacteria pellet was resuspended in PBS and mixed with 5% mucin derived from porcine stomach (type 3; Sigma-Aldrich, Taiwan).
To induce A. baumannii pneumonia, 8-week-old C57BL/6 mice (National Laboratory Animal Center, Taiwan) were first anesthetized with 2% tribromoethanol (Avertin; 0.018 mL/g). 6.07×10^8 CFU of A. baumannii 17978 were then administered to the mice via intra-tracheal injection to induce pneumonia (FIG. 4A). At 2 hours post-inoculation, the mice were treated twice a day with PBS (as the control), CS, or CS NPs at 5 mg/kg via intravenous injections.
The efficacy between CS and the CS NPs was compared by survival analysis. The difference in survival among the groups was analyzed by a Log-rank test using GraphPad Prism. Treatment efficacy of CS and CS NPs was observed 36 hour post-infection as no mortality was recorded in either of the two drug treatment groups whereas 37.5% of the control group animals were deceased. […] The survival outcome supports retention of CS's antimicrobial activity following nanoparticle assembly.

[1] = Maximum tolerated dose, intravenous; conditions: BALB/c mice, tail vein, Example 1 study
Text: See e,g., Li et al, International Journal of Pharmaceutics, 2016, 515, 20-29; and Barnett et al., British Journal of Pharmacology and Chemotherapy, 1964, 23, 552-574. The highest dosage at which all examined subjects remained alive was defined as the MTD.
For this study, mice (8 weeks, Balb/c mice) were obtained from Bio-LASCO Taiwan Co., Ltd (Taipei, Taiwan). […] The highest dosage at which all examined subjects remained alive was defined as the MTD.

[2] = clinical carbapenem-resistant isolate P. aeruginosa NHRI 1
[3] = clinical carbapenem-resistant isolate P. aeruginosa NHRI 2
[4] = clinical carbapenem-resistant isolate P. aeruginosa NHRI 3
[5] = clinical carbapenem-resistant isolate P. aeruginosa NHRI 4
[6] = clinical carbapenem-resistant isolate P. aeruginosa NHRI 5
[7] = reference strain P. aeruginosa 27853
[8] = clinical carbapenem-resistant E. coli NHRI 1
[9] = clinical carbapenem-resistant E. coli NHRI 2
[10] = clinical carbapenem-resistant E. coli NHRI 3
[11] = clinical carbapenem-resistant E. coli NHRI 4
[12] = clinical carbapenem-resistant E. coli NHRI 5
[13] = clinical carbapenem-resistant E. coli TSGH 2
[14] = clinical carbapenem-resistant E. coli TSGH 4
[15] = clinical carbapenem-resistant E. coli TSGH 6
[16] = clinical carbapenem-resistant E. coli TSGH 8
[17] = clinical carbapenem-resistant E. coli TSGH 10
[18] = clinical carbapenem-resistant E. coli TSGH 14
[19] = clinical carbapenem-resistant E. coli TSGH 20
[20] = clinical carbapenem-resistant E. coli TSGH 21
[21] = clinical carbapenem-resistant A. baumannii NHRI 1
[22] = clinical carbapenem-resistant A. baumannii NHRI 2
[23] = clinical carbapenem-resistant A. baumannii NHRI 3
[24] = clinical carbapenem-resistant A. baumannii NHRI 4
[25] = clinical carbapenem-resistant A. baumannii NHRI 5
[26] = reference strain A. baumannii 15151
[27] = reference strain A. baumannii 17978
[28] = reference strain A. baumannii 19606

colistin [CS]
MBC (E. Coli ATCC 25922): 4 µg/mL | MIC (E. Coli ATCC 25922): 2 µg/mL | MBC (P. aeruginosa; [2]): 4 µg/mL | MIC (P. aeruginosa; [2]): 1 µg/mL | MBC (P. aeruginosa; [3]): 4 µg/mL | MIC (P. aeruginosa; [3]): 2 µg/mL | MBC (P. aeruginosa; [4]): 4 µg/mL | MIC (P. aeruginosa; [4]): 1 µg/mL | MBC (P. aeruginosa; [5]): 4 µg/mL | MIC (P. aeruginosa; [5]): 2 µg/mL | MBC (P. aeruginosa; [6]): 4 µg/mL | MIC (P. aeruginosa; [6]): 1 µg/mL | MBC (P. aeruginosa; [7]): 2 µg/mL | MIC (P. aeruginosa; [7]): 1 µg/mL | MBC (E. coli; [8]): 1 µg/mL | MIC (E. coli; [8]): 1 µg/mL | MBC (E. coli; [9]): 1 µg/mL | MIC (E. coli; [9]): 1 µg/mL | MBC (E. coli; [10]): 1 µg/mL | MIC (E. coli; [10]): 1 µg/mL | MBC (E. coli; [11]): 2 µg/mL | MIC (E. coli; [11]): 1 µg/mL | MBC (E. coli; [12]): 2 µg/mL | MIC (E. coli; [12]): 1 µg/mL | MBC (E. coli; [13]): 1 µg/mL | MIC (E. coli; [13]): 1 µg/mL | MBC (E. coli; [14]): 1 µg/mL | MIC (E. coli; [14]): 1 µg/mL | MBC (E. coli; [15]): 2 µg/mL | MIC (E. coli; [15]): 1 µg/mL | MBC (E. coli; [16]): 2 µg/mL | MIC (E. coli; [16]): 1 µg/mL | MBC (E. coli; [17]): 1 µg/mL | MIC (E. coli; [17]): 1 µg/mL | MBC (E. coli; [18]): 1 µg/mL | MIC (E. coli; [18]): 1 µg/mL | MBC (E. coli; [19]): 1 µg/mL | MIC (E. coli; [19]): 1 µg/mL | MBC (E. coli; [20]): 1 µg/mL | MIC (E. coli; [20]): 1 µg/mL | MBC (E. coli; reference strain E. coli 25922): 2 µg/mL | MIC (E. coli; reference strain E. coli 25922): 1 µg/mL | MBC (A. baumannii; [21]): 2 µg/mL | MIC (A. baumannii; [21]): 1 µg/mL | MBC (A. baumannii; [22]): 2 µg/mL | MIC (A. baumannii; [22]): 1 µg/mL | MBC (A. baumannii; [23]): 1 µg/mL | MIC (A. baumannii; [23]): 1 µg/mL | MBC (A. baumannii; [24]): 2 µg/mL | MIC (A. baumannii; [24]): 1 µg/mL | MBC (A. baumannii; [25]): 1 µg/mL | MIC (A. baumannii; [25]): 1 µg/mL | MBC (A. baumannii; [26]): 1 µg/mL | MIC (A. baumannii; [26]): 1 µg/mL | MBC (A. baumannii; [27]): 1 µg/mL | MIC (A. baumannii; [27]): 1 µg/mL | MBC (A. baumannii; [28]): 1 µg/mL | MIC (A. baumannii; [28]): 1 µg/mL | release profile in dialysis (CS release by dialysis): rapidly dialyzed from the setup | mortality (A. baumannii 17978; 36 hour post-infection): no mortality | surviving mice out of 8 assessed animals (A. baumannii 17978; 72 hours of observation): 4 | MTD [1]: 10 mg/kg
